Measured values as given in ChEMBL document CHEMBL1201862, “PubChem BioAssay data set” (2004).
Active and inactive are the calls of the source.

Experiments:
[1] = molecular target: ALK tyrosine kinase receptor (Homo sapiens, UniProt Q9UM73); type: functional;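 note: ALK tested as one member of a kinase panel screen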
[2] = molecular target: Cyclin-dependent kinase 19 (Homo sapiens, UniProt Q9BWU1); assay: Navigating the Kinome. Panel member name: CDC2L6; type: functional
[3] = molecular target: T1, High affinity choline transporter 1 (Homo sapiens, UniProt Q9GZV3); assay: human choline transporter blockers, potency – cell-based, 5-point CRC, membrane potential dye, dose response (AID 504840); type: functional
T1 sequence (Q9GZV3 whole entry): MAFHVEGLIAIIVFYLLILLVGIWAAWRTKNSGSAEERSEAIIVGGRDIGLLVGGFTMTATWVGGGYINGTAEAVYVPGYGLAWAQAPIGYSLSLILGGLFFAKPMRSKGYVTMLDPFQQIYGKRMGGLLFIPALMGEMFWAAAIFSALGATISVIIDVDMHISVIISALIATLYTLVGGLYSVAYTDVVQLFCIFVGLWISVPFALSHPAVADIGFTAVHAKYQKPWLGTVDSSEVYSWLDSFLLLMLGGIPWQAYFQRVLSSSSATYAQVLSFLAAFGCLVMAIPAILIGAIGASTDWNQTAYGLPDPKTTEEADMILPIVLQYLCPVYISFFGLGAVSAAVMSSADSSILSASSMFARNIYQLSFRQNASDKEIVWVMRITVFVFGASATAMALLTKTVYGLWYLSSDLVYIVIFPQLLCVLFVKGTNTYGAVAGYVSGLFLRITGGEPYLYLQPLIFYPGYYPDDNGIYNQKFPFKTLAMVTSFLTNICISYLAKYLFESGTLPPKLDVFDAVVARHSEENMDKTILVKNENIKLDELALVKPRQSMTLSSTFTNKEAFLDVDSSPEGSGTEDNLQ

[4] = molecular target: T1, High affinity choline transporter 1; assay: human choline transporter blockers, potency – cell-based, 10-point CRC, membrane potential dye, dose response (AID 588401); type: functional;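 note: membrane potential dye fluorescence of choline-evoked depolarization via CHT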
Protein Wnt-3a = Protein Wnt-3a (Mus musculus, UniProt P27467); assay: antagonism of Wnt3a pathway luciferase reporter – Wnt-LIGHT cells, luminescence, selectivity assay for Gli-SUFU antagonist project, dose response (AID 651570); type: functional; conditions: read-out: IC50_Mean;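 note: Wnt-LIGHT reporter cells stimulated with conditioned medium from Wnt3a-producing cells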
Sequence of Protein Wnt-3a (P27467 whole entry): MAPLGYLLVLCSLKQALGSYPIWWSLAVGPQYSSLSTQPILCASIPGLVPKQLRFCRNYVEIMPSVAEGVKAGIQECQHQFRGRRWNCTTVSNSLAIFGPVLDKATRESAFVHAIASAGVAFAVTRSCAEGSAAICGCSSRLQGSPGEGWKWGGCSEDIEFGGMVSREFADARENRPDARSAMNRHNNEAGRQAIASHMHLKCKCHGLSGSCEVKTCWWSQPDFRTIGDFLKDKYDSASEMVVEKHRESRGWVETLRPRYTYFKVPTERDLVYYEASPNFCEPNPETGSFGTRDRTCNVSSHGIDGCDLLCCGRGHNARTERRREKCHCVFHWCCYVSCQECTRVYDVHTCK

[5] = molecular target: T2, Ubiquitin-conjugating enzyme E2 N (Homo sapiens, UniProt P61088); type: functional;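 note: Dose-response confirmation in a TR-FRET assay detecting UBC13-driven polyubiquitin chain formation, inhibition measured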
T2 sequence (P61088 whole entry): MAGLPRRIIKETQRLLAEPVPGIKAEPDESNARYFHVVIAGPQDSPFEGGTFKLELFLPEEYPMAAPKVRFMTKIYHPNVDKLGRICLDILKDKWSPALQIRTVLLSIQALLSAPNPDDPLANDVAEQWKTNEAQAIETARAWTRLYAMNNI

Interleukin-8 = Interleukin-8 (Homo sapiens, UniProt P10145); assay: Dose Response confirmation of uHTS small molecule hits for cystic fibrosis induced NFkb Inhibitors in a PAF-induced IL8 counterscreen.; type: functional; conditions: read-out: IC50_Mean
Sequence of Interleukin-8 (P10145 whole entry): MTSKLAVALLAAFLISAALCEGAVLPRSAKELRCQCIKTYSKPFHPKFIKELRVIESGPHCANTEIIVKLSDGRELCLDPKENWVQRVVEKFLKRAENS

[6] = molecular target: Melanin-concentrating hormone receptor 1 (Homo sapiens, UniProt Q99705); assay: Late-stage fluorescence-based counterscreen for antagonists of the G-protein coupled receptor 7 (GPR7): cell-based dose response assay to identify antagonists of the melanin-concentrating hormone receptor 1 (MCHR1) Set 5.; type: functional
Sequence of Melanin-concentrating hormone receptor 1 (Q99705 whole entry): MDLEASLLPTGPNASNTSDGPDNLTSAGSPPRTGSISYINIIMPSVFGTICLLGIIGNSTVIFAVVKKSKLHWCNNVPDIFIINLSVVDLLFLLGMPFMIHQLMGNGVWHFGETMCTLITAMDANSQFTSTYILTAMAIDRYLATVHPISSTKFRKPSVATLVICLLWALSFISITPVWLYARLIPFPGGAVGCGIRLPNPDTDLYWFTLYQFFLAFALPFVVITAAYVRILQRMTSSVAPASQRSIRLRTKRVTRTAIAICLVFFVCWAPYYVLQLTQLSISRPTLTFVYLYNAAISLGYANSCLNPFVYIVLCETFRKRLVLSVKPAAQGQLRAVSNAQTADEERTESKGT

[7] = molecular target: Glucose-6-phosphate 1-dehydrogenase (Homo sapiens, UniProt P11413); assay: inhibition of Homo sapiens G6PD, dose series – biochemical, fluorescence, selectivity assay for P. falciparum G6PD inhibitor project, dose response (AID 504792); type: functional
[8] = Fluorescence-based cell-based high throughput dose response assay for inhibitors of the interaction of nucleotide-binding oligomerization domain containing 2 (NOD2) and the receptor-interacting serine-threonine kinase 2 (RIPK2).; type: functional; conditions: Homo sapiens
Beta Lactamase = Beta Lactamase (Pseudomonas aeruginosa, UniProt Q932Y6); assay: BLA reporter interference, concentration series – BLA reporter cells, FRET fluorescence, artefact control for NOD2-RIPK2 interaction inhibitor project, dose response (AID 651552); type: functional, cell-based
Sequence of Beta Lactamase (Q932Y6 whole entry): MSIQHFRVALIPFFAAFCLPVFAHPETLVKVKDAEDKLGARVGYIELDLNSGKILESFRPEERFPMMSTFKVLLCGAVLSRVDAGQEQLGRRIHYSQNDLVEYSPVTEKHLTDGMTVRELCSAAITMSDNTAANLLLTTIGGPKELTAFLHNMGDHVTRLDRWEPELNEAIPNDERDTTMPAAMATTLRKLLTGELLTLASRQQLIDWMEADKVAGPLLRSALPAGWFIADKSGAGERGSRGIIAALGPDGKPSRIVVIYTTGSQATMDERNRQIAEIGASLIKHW

Melanocortin receptor 4 = Melanocortin receptor 4 (Homo sapiens, UniProt P32245); assay: inhibitors of MC4R cAMP signaling – cell-based, TR-FRET, biased antagonists, dose response (AID 602298); type: functional;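 note: antagonist potency against agonist-stimulated cAMP production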
Sequence of Melanocortin receptor 4 (P32245 whole entry): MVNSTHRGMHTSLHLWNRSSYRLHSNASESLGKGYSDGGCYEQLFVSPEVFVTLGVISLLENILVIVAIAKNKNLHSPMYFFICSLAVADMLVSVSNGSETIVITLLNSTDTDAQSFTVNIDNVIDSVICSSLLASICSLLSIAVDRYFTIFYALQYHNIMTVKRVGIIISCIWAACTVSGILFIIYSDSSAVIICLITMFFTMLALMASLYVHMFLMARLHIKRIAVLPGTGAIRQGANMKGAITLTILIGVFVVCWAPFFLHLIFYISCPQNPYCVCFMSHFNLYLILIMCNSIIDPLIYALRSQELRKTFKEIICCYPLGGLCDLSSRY

[9] = cAMP pathway inhibition in counterscreen cell line – TR-FRET cAMP detection, counter-screen for MC4R biased antagonist project, dose response (AID 602305); type: functional, cell-based;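 note: U2OS cells stimulated with forskolin near its EC80 as the cAMP inducer; potency is for inhibition of forskolin-stimulated cAMP signaling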
[10] = molecular target: Ras and Rab interactor 1/Tyrosine-protein kinase ABL1 (Homo sapiens, UniProt P00519+Q13671); type: functional;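 note: biochemical TR-FRET dose-response test measuring inhibition of binding between Rin1 and Abl proteins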
[11] = viability loss in HeLa cells – cytotoxicity control for MgcRacGAP inhibitor project, dose response (AID 624300); type: functional
[12] = molecular target: T3, Rac GTPase-activating protein 1 (Homo sapiens, UniProt Q9H0H5); assay: blockers of MgcRacGAP-driven Rac1 GTP hydrolysis – biochemical, ADP Hunter fluorescence, primary and confirmatory, confirmation (AID 624330); type: functional
T3 sequence (Q9H0H5 whole entry): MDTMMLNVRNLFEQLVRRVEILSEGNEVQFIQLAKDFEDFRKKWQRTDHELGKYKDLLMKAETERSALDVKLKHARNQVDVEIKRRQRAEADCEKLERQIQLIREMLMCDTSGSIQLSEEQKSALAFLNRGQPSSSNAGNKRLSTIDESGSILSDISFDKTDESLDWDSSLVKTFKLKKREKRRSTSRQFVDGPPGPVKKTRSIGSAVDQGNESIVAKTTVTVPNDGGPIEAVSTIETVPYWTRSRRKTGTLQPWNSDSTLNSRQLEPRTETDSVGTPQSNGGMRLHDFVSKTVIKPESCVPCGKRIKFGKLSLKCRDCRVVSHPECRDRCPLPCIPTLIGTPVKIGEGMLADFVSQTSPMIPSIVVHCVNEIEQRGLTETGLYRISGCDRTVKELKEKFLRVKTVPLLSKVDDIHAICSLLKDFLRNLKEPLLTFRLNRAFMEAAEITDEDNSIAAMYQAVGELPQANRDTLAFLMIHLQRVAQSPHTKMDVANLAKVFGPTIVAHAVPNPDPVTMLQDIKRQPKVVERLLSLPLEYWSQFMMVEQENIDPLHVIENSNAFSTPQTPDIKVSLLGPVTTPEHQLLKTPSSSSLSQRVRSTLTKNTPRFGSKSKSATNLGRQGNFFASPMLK

[13] = molecular target: T4, DNA repair protein RAD52 homolog (Homo sapiens, UniProt P43351); type: functional, biochemical
T4 sequence (P43351 whole entry): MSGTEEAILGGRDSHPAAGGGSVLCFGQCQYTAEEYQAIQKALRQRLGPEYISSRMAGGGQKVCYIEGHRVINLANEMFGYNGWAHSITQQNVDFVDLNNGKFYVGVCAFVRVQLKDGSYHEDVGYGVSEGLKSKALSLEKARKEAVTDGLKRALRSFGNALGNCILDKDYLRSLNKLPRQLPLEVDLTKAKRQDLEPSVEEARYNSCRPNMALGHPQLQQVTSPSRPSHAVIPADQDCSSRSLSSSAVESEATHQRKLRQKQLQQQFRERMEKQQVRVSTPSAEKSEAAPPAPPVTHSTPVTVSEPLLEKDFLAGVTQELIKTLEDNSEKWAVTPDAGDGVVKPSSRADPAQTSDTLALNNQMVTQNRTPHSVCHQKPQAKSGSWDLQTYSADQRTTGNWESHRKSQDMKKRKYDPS

Large T antigen = Large T antigen (Simian virus 40, UniProt P03070); type: functional, Betapolyomavirus macacae;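 note: Confirmatory-stage PubChem screen for compounds that inhibit SV40 T antigen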
Sequence of Large T antigen (P03070 whole entry): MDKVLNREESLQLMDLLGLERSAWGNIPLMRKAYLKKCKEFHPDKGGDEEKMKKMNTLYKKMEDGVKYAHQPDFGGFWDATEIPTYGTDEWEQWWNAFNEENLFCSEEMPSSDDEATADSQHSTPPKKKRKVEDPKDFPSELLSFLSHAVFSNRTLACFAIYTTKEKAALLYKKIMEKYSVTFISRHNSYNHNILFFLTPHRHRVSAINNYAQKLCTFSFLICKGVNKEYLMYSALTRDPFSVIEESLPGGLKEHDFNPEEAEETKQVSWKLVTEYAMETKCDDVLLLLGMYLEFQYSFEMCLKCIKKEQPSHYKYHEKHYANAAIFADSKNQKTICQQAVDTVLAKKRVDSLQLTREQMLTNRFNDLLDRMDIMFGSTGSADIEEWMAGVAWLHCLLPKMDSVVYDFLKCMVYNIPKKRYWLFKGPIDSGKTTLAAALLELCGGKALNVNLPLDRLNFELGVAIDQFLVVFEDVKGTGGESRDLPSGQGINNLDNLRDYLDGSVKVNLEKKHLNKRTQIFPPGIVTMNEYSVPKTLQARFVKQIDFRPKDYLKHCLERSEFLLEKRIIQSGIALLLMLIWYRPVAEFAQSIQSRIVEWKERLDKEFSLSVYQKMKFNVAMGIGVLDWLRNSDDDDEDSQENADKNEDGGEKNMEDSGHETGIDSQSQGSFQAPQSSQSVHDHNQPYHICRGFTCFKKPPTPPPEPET

[14] = molecular target: T5, Mannose-6-phosphate isomerase (Homo sapiens, UniProt P34949); assay: MPI enzyme activity inhibition – biochemical, fluorescence intensity, coupled assay, primary screen (AID 1209)
T5 sequence (P34949 whole entry): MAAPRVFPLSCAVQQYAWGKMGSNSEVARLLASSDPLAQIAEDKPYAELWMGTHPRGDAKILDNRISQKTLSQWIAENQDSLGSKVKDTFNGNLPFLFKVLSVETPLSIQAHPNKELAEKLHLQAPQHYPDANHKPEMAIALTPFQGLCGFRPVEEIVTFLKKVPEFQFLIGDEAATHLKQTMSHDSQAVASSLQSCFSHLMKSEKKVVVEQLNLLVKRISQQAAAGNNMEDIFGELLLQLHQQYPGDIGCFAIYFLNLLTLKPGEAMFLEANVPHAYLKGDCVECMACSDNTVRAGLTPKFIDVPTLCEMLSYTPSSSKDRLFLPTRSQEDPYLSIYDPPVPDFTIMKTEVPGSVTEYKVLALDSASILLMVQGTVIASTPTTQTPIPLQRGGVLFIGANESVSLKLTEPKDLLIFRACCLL

[15] = molecular target: Dual specificity tyrosine-phosphorylation-regulated kinase 1A (Rattus norvegicus, UniProt Q63470); type: biochemical, Homo sapiens
[16] = molecular target: Protein disulfide-isomerase (Homo sapiens, UniProt P07237); assay: inhibition of PDI-driven insulin aggregation – biochemical, turbidity, absorbance, cherry-picked samples, dose response (AID 602350); type: functional
Sequence of Protein disulfide-isomerase (P07237 whole entry): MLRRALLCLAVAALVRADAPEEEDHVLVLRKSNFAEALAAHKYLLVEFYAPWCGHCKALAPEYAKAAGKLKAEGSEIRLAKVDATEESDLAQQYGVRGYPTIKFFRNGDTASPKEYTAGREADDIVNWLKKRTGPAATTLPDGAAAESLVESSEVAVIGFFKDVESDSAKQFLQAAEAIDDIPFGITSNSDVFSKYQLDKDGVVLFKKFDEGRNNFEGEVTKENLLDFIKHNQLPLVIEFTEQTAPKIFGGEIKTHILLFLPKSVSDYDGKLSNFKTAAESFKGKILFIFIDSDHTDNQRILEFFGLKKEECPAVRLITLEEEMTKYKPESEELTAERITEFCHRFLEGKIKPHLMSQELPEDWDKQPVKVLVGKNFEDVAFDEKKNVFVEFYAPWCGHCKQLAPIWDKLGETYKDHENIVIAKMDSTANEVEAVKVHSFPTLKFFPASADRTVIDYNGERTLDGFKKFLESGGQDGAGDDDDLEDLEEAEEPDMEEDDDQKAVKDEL

[17] = NIH-3T3 fibroblast cytotoxicity, dose response, cytotoxicity control, cell-based, fluorescence, Alamar Blue, secondary assay (AID 2327); type: functional;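 note: NIH-3T3 mouse fibroblasts cultured with fluconazole at 8 µg/mL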
cells [18] = type: functional, cell-based
[19] = fluconazole-exposed Candida albicans growth modulators – fluorescence, retest, confirmation (AID 2467); type: functional, cell-based
cells [20] = type: functional, cell-based; remark: listed apart in the source
[21] = HEK-293T viability loss after treatment – luminescence, T-cell screen hits, cytotoxicity control for TCR NF-kB inhibitor project, dose response (AID 489026); type: functional, cell-based;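 note: cells exposed to compound about 14 hours before the viability readout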
BJ = assay: growth inhibition of engineered Ras-driven BJ cells – cell-based, alamar blue fluorescence, cherrypicked samples, dose response (AID 2631); type: functional; conditions: Homo sapiens;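 note: confirmatory dose-response assay in RAS-dependent BJ fibroblasts engineered with TERT, LT and ST, with cytotoxicity read by fluorescence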
INS1 = assay: INS-1E survival protection against cytokine death – cell-based, luminescence, retest, dose response (AID 449756); type: functional; conditions: Rattus norvegicus;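 note: cell death triggered by IL-1 beta plus TNF-alpha plus IFN-gamma mixture; protective hits raise ATP signal compared with cytokine alone wells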
[22] = microbe, parasite or virus in culture; type: functional; conditions: Mycobacterium tuberculosis
[23] = molecular target: Neurotensin receptor type 1 (Homo sapiens, UniProt P30989); type: functional;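 note: Image-based confirmatory dose-response assay measuring agonist activity at NTR1; NTR1-expressing U2OS osteosarcoma cells imaged for beta-arrestin GFP spot formation; agonist potency where compounds increase beta-arrestin recruitment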
Sequence of Neurotensin receptor type 1 (P30989 whole entry): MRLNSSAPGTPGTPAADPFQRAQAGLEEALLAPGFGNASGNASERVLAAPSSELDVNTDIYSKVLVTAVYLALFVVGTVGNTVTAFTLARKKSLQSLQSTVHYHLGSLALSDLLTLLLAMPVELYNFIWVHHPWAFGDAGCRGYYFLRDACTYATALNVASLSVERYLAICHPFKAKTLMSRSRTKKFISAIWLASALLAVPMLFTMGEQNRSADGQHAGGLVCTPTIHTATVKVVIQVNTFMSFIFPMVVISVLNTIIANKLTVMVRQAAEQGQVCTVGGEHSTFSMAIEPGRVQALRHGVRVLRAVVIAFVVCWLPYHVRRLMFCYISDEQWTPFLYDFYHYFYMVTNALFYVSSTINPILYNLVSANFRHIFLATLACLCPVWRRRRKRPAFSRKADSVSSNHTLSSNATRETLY

[24] = molecular target: Heat shock protein HSP 90-alpha (Homo sapiens, UniProt P07900); type: functional, organism-based
Vero = assay: cells; type: functional; conditions: Chlorocebus sabaeus
[25] = reduction of Shn3 3'UTR-driven luciferase in osteoblasts – cell-based, Clone20 osteoblasts, firefly luciferase, cherry-picked, dose response (AID 624132); type: functional;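 note: firefly luciferase luminescence from reporter carrying the Shn3 3'UTR in osteoblasts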
[26] = loss of viability in HepG2 cells – cell-based, CellTiter-Glo, cherry-picked, cytotoxicity control for Shn3 inhibitor project, dose response (AID 624134); type: functional
[27] = non-specific 3'UTR reporter inhibition in Clone20-Shn3RL – cell-based, Renilla luciferase, cherry-picked, counter-screen for Shn3 inhibitor project, dose response (AID 624133); type: functional
[28] = molecular target: T6, Low molecular weight phosphotyrosine protein phosphatase (Homo sapiens, UniProt P24666); type: functional; conditions: read-out: IC50_Mean
T6 sequence (P24666 whole entry): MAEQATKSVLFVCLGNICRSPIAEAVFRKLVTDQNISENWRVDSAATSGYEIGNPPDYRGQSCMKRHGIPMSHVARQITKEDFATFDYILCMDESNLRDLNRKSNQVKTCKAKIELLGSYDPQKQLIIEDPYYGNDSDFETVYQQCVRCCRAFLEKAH

[29] = molecular target: T6, Low molecular weight phosphotyrosine protein phosphatase; type: functional; conditions: read-out: IC50_Mean; remark: listed apart in the source
[30] = molecular target: DNA (cytosine-5)-methyltransferase 1 (Homo sapiens, UniProt P26358); assay: inhibition of DNA methylation by DNMT1 – biochemical, fluorescent molecular beacon, confirmation (AID 602386); type: functional
Sequence of DNA (cytosine-5)-methyltransferase 1 (P26358 whole entry): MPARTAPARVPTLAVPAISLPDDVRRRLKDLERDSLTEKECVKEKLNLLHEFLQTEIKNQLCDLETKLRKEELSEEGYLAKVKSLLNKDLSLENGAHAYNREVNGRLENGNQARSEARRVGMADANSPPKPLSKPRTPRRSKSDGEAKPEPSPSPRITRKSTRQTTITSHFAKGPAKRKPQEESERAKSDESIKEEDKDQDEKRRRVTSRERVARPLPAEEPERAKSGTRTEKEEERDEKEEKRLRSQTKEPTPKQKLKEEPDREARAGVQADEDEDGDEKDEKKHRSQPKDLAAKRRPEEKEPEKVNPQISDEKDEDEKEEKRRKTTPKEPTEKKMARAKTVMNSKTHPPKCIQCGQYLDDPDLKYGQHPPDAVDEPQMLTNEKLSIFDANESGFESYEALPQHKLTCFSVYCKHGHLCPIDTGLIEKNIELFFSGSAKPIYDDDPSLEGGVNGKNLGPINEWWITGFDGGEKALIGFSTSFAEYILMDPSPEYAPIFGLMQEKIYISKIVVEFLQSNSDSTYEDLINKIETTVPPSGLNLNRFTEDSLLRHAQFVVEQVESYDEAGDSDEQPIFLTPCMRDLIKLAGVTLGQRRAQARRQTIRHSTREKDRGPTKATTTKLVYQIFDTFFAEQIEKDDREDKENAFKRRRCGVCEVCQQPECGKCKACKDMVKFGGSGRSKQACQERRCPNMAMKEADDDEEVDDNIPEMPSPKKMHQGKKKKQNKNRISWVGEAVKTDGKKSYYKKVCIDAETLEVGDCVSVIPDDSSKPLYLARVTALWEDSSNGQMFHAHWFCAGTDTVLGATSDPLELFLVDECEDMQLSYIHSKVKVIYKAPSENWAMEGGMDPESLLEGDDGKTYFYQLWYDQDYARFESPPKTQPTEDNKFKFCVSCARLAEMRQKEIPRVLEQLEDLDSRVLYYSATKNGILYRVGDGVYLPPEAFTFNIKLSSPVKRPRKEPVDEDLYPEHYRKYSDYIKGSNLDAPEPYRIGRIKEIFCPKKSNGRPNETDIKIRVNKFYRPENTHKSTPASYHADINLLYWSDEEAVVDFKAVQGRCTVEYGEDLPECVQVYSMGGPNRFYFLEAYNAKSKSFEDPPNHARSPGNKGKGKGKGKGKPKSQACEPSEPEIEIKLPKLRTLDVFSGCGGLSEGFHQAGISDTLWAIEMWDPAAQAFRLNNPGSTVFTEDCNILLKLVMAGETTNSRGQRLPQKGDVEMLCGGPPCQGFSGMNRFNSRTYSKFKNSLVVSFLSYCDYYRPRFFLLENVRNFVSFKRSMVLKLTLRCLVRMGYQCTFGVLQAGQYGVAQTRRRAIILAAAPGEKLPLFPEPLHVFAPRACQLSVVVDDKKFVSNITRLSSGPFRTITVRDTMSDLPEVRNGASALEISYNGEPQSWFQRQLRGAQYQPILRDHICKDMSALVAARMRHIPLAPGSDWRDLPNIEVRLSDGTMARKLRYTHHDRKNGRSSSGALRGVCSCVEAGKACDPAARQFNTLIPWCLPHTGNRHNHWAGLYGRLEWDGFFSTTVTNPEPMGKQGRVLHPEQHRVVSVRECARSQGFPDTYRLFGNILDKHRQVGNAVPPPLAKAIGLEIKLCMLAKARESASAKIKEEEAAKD

## Cn1cc(Nc2ncc(Br)c(Nc3ccccc3)n2)cn1
[1]
  Ki: 1.26 µM (active)
[2]
  Ki: 2 µM (active)

## Cc1ccc(NC(=O)CN2C(=O)NC3(CCc4ccccc43)C2=O)cc1Cl (centres undefined)
[3]
  IC50: 9.3 µM (active)
[4]
  IC50: 11.2 µM (active)

## C/C(=N\NC(=O)C(=O)Nc1ccc(C)c(Cl)c1)c1ccncc1
Protein Wnt-3a
  IC50: 0.909 µM (active)

## CN(C)c1ccnc2sc3c(=O)n(Cc4ccccc4)cnc3c12
[5]
  IC50: > 20 µM (inactive)
Interleukin-8
  IC50: 12.2 µM (inactive)

## COc1ccc(Oc2c(Cl)cnn(C3c4ccccc4Oc4ccccc43)c2=O)cc1
[6]
  IC50: > 20 µM (inactive)

## Clc1nssc1=Nc1nncs1
[7]
  IC50: 42.3 µM (inactive)
[8]
  IC50: 6.62 µM (active)
Beta Lactamase
  IC50: 49.8 µM (inactive)

## COc1cc(OC)cc(Oc2ccc(S(=O)(=O)N3CCCCC3)cc2[N+](=O)[O-])c1
Melanocortin receptor 4
  IC50: > 64.6 µM (inactive)
[9]
  IC50: > 64.6 µM (inactive)

## COc1cccc2c3cccc(OC)c3c3[nH]cnc3c12
[10]
  IC50: 15.8 µM (inactive)
[11]
  CC50: 43.9 µM (active)
[12]
  IC50: 82.8 µM (active)
[13]
  AC50: 0.513 µM (active)

## O=c1c(OC2OC(CO)C(O)C(O)C2O)c(-c2ccc(O)c(O)c2)oc2cc(O)cc(O)c12 (centres undefined)
Large T antigen
  IC50: 2.06 µM (active)
[14]
  IC50: 21.3 µM (active)
[15]
  AC50: 7.72 µM (active)
[16]
  AC50: 8.92 µM (active)

## O=C(N/N=C\c1c(O)ccc2ccccc12)c1ccc(S(=O)(=O)N2CCCCC2)cc1
[17]
  EC50: 3.29 µM (active)
Cells [18]
  EC50: 5.71 µM (active)
[19]
  EC50: 0.178 µM (active)
Cells [20]
  EC50: > 350 µM (not active)
[21]
  IC50: > 80 µM (inactive)
BJ
  EC50: 0.558 µM (inconclusive)
INS1
  AC50: < 0.195 µM (active)

## C[C@H]1CN([C@@H](C)CO)C(=O)c2cccc(NS(C)(=O)=O)c2O[C@@H]1CN(C)Cc1ccc(Oc2ccccc2)cc1
[16]
  AC50: 19.5 µM (active)

## O=C(c1ccc(Br)cc1)C(CN1CCOCC1)c1ccccc1 (centres undefined)
[22]
  CC50: > 40 µM (active)
[23]
  EC50: 33 µM (inactive)
[24]
  AC50: 2.85 µM (active)
Vero
  CC50: > 25 µM (active)
Melanocortin receptor 4
  IC50: > 64.6 µM (inactive)
[25]
  AC50: 9.4 µM (active)
[26]
  AC50: 21.6 µM (active)
[27]
  AC50: 10.6 µM (active)
[9]
  IC50: > 64.6 µM (inactive)
[8]
  IC50: 7.78 µM (active)

## COc1cc(NS(=O)(=O)c2ccc(NC(=O)c3ccc(Cl)cc3Cl)cc2)ncn1
[3]
  IC50: 4.47 µM (active)
[4]
  IC50: 9.46 µM (active)

## COCCNc1nc(NCc2ccc(C)cc2C)c2sccc2n1
[28]
  IC50: 15.6 µM (active)
[29]
  IC50: 13.8 µM (active)

## CCCCCCCCc1nnc(NC(=O)c2ccco2)s1
[30]
  IC50: 42.4 µM (active)
